Values quoted from earlier work in patent US9945862B2, “Biomarkers for predicting and assessing responsiveness of thyroid and kidney cancer subjects to lenvatinib compounds” (Eisai R&D Management Co., Ltd., priority 2011, dated 2018).

Tested on: xenograft models of various tumors
Settings: by inhibiting angiogenesis; cited from earlier work

In the case of `COc1cc2nccc(Oc3ccc(NC(=O)NC4CC4)c(Cl)c3)c2cc1C(N)=O` [Lenvatinib, 4-(3-chloro-4(cyclopropylaminocarbonyl)aminophenoxy)-7-methoxy-6-quinolinecarboxamide], the Anti-tumor effect is listed as “potent anti-tumor effects”.
